Calls of active or inactive are those of the source. The rule behind the calls is not given here.
How the values were obtained:
Primary lung fibroblast [1] = test: Inhibition of type 1 collagen secretion in human lung fibroblasts at 5 ug/ml incubated for 18 hrs followed by addition of fresh medium and measured after 3 hrs by Western blot analysis; type: functional, tissue-based; settings: dose 5.0 µg/ml
[2] = biological target: La-related protein 6 (Homo sapiens) (UniProt Q9BRS8); test: Inhibition of LARP6 La module (unknown origin) binding with collagen 5' stem loop mRNA at > 2.5 uM by gel mobility shift assay; settings: dose microM >2.5
[3] = Inhibition of type 1 collagen alpha2 polypeptide secretion in human lung fibroblasts incubated for 18 hrs followed by addition of fresh medium and measured after 3 hrs by Western blot analysis; type: functional, tissue-based; settings: Primary lung fibroblast
[4] = Inhibition of type 1 collagen alpha1 polypeptide secretion in human lung fibroblasts incubated for 18 hrs followed by addition of fresh medium and measured after 3 hrs by Western blot analysis; type: functional, tissue-based; settings: Primary lung fibroblast
[5] = biological target: La-related protein 6 (Homo sapiens) (UniProt Q9BRS8); test: Inhibition of LARP6 La domain (unknown origin) binding with collagen 5' stem loop mRNA at > 1 uM by gel mobility shift assay; settings: dose microM >1
[6] = biological target: La-related protein 6 (Homo sapiens) (UniProt Q9BRS8); test: Inhibition of LARP6 La domain (unknown origin) binding with collagen 5' stem loop mRNA assessed as decrease in La domain bound band intensity at 1 to 3 uM by gel mobility shift assay; settings: dose 1-3 µM
[7] = biological target: La-related protein 6 (Homo sapiens) (UniProt Q9BRS8); test: Inhibition of LARP6 La module (unknown origin) binding with collagen 5' stem loop mRNA assessed as decrease in La module monomer bound band intensity at 1 to 50 uM by gel mobility shift assay; settings: dose 1-50 µM
[8] = Cytotoxicity against human lung fibroblasts assessed as effect on cell viability; type: tissue-based; settings: primary lung fibroblast
Primary lung fibroblast [9] = test: Inhibition of type 1 collagen alpha2 polypeptide secretion in human lung fibroblasts at 4 uM incubated for 18 hrs followed by addition of fresh medium and measured after 3 hrs by Western blot analysis; type: functional, tissue-based
Primary lung fibroblast [10] = test: Inhibition of type 1 collagen alpha1 polypeptide secretion in human lung fibroblasts at 5 uM incubated for 18 hrs followed by addition of fresh medium and measured after 3 hrs by Western blot analysis; type: functional, tissue-based
[11] = biological target: La-related protein 6 (Homo sapiens) (UniProt Q9BRS8); test: Inhibition of LARP6 La module (unknown origin) binding with collagen 5' stem loop mRNA assessed as decrease in La module dimer bound band intensity at 1 to 50 uM by gel mobility shift assay; settings: dose 1-50 µM

Chain of La-related protein 6 (Homo sapiens) (Q9BRS8 whole entry, looked up, the tested form may be a part): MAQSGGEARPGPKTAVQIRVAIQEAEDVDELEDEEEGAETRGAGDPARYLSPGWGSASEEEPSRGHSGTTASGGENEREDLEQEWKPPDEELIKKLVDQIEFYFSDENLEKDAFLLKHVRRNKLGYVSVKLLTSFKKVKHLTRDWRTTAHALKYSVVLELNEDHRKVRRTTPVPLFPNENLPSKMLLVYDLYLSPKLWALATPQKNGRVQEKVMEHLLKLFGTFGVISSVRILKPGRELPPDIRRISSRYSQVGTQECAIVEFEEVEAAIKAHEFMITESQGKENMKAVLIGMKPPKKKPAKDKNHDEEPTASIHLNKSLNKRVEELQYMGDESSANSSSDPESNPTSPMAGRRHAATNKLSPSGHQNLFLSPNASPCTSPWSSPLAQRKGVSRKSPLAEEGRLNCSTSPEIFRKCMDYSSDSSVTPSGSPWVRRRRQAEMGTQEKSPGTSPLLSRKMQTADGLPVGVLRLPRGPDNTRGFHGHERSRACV

SMILES | inhibition (Primary lung fibroblast [1]) | inhibition [2] | IC50 [3] | IC50 [4] | inhibition [5] | inhibition [6] | inhibition [7] | Activity [8] | inhibition (Primary lung fibroblast [9]) | inhibition (Primary lung fibroblast [10]) | inhibition [11]
CCCCCCCCCCCCCC(=O)N[C@H]1C[C@@H](C(N)=O)N(c2cc(N3CCN(C(=O)CCCc4ccccc4)CC3)ncn2)C1 | Active | – | – | – | – | – | – | – | – | – | –
CCCCCCCCCCCCCC(=O)N[C@H]1C[C@@H](C(N)=O)N(c2cc(N3CCN(C(=O)c4cc(C)cc(C)c4)CC3)ncn2)C1 | – | Active | 3.1 µM | 4.4 µM | Active | Active | Active | Non-Toxic | Active | Active | Active

Reference: ChEMBL document CHEMBL4680378, “Discovery of a Lead Compound for Specific Inhibition of Type I Collagen Production in Fibrosis” (ACS Med Chem Lett, 2021)
